Laboratory results as given in patent publication US20210198204A1, “PRODRUGS OF KALLIKREIN INHIBITORS” (BioCryst Pharmaceuticals, Inc., priority 2016, published 2021).

Assay: Plasma pharmacokinetics of the parent compound after a single oral dose of prodrug
Type: in vivo
Conditions: single oral dose 10 mg/kg, fasted male Sprague Dawley rats; plasma analyzed for the parent compound; study duration 8 h
Method: Plasma pharmacokinetics of compounds was determined using three male Sprague Dawley rats following a single oral dose administration. All animals were placed in a rat metabolic cage, isolated, and fasted approximately 15 hours prior to dosing. Identifying markers were placed on each animal. Each animal was weighed prior to dose administration. Animals were administered orally with a solution formulation of test compound either in water or a combination of water/propylene glycol, at a dose of 10 mg/kg. Gavage needles were attached to syringes and filled with appropriate amount of test article to be dosed. Blood samples (approximately 500 μL) were collected from three rats at pre-dose (time 0), 0.5, 1, 2, 4, 8, 12 and 24 hr, respectively, depending on study duration. Samples were collected into labeled micro centrifuge tubes containing (heparin solution) as an anticoagulant. Plasma was immediately harvested from the blood by centrifugation at 14,000 rpm for 3 min at 4° C., and stored below −70° C. until bioanalysis. Individual plasma samples were analyzed for the parent compound, 3-[2-(4-carbamimidoyl-phenylcarbamoyl)-5-methoxy-4-vinyl-phenyl]-6-(cyclopropylmethyl-carbamoyl)-pyridine-2-carboxylic acid. As shown in Table-1, the test compounds yielded varying degrees of exposure to the parent compound. The test compounds generally provided for improved bioavailability of the parent compound as compared to dosing of the parent compound in aqueous solutions.

SMILES	AUC0-last hour (area under the curve)
C=Cc1cc(C(=O)Nc2ccc(C(=N)NC(=O)OCCN3CCOCC3)cc2)c(-c2ccc(C(=O)NCC3CC3)nc2C(=O)OC(C)OC(=O)[C@@H](N)C(C)C)cc1OC (stereo partly drawn) [Compound 96d, 1-(((S)-2-amino-3-methylbutanoyl)oxy)ethyl 6-((cyclopropylmethyl)carbamoyl)-3-(5-methoxy-2-((4-(N-((2-morpholinoethoxy)carbonyl)carbamimidoyl)phenyl)carbamoyl)-4-vinylphenyl)picolinate]	A (A = 0-1,000 ng/mL)
C=Cc1cc(C=O)c(-c2ccc(C(=O)NCC3CC3)nc2C(=O)OC(OC(=O)C(C)(C)C)C(C)C)cc1OC (stereo not shown) [Compound 56b, 2-methyl-1-(pivaloyloxy)propyl 6-((cyclopropylmethyl)carbamoyl)-3-(2-formyl-5-methoxy-4-vinylphenyl)picolinate]	C (C >10,000 ng/mL)
C=Cc1cc(C(=O)Nc2ccc(C(=N)NC(=O)OC(C)OC(=O)[C@@H](N)C(C)C)cc2)c(-c2ccc(C(=O)NCC3CC3)nc2C(=O)OC(C)OC(=O)OC(C)C)cc1OC (stereo partly drawn) [Compound 54c, 1-((isopropoxycarbonyl)oxy)ethyl 3-(2-((4-(N-((1-(((S)-2-amino-3-methylbutanoyl)oxy)ethoxy)carbonyl)carbamimidoyl)phenyl)carbamoyl)-5-methoxy-4-vinylphenyl)-6-((cyclopropylmethyl)carbamoyl)picolinate]	B (B = 1,001-10,000 ng/mL)
C=Cc1cc(C(=O)Nc2ccc(C(=N)NC(=O)OC(COC)COC)cc2)c(-c2ccc(C(=O)NCC3CC3)nc2C(=O)OC(C)OC(=O)C(C)C)cc1OC (stereo not shown) [Compound 66c, 1-(isobutyryloxy)ethyl 6-((cyclopropylmethyl)carbamoyl)-3-(2-((4-(N-(((1,3-dimethoxypropan-2-yl)oxy)carbonyl)carbamimidoyl)phenyl)carbamoyl)-5-methoxy-4-vinylphenyl)picolinate]	B (B = 1,001-10,000 ng/mL)
C=Cc1cc(C(=O)Nc2ccc(C(=N)NC(=O)OCCCCCN)cc2)c(-c2ccc(C(=O)NCC3CC3)nc2C(=O)OC(C)OC(=O)C(C)C)cc1OC (stereo not shown) [Compound 102d, 1-(isobutyryloxy)ethyl 3-(2-((4-(N-(((5-aminopentyl)oxy)carbonyl)carbamimidoyl)phenyl)carbamoyl)-5-methoxy-4-vinylphenyl)-6-((cyclopropylmethyl)carbamoyl)picolinate]	A (A = 0-1,000 ng/mL)
C=Cc1cc(C(=O)Nc2ccc(C(=N)NC(=O)OCCOCC)cc2)c(-c2ccc(C(=O)NCC3CC3)nc2C(=O)OC(C)OC(=O)C(C)C)cc1OC (stereo not shown) [Compound 80c, 1-(isobutyryloxy)ethyl 6-((cyclopropylmethyl)carbamoyl)-3-(2-((4-(N-((2-ethoxyethoxy)carbonyl)carbamimidoyl)phenyl)carbamoyl)-5-methoxy-4-vinylphenyl)picolinate]	C (C >10,000 ng/mL)
C=Cc1cc(C(=O)Nc2ccc(C(=N)NC(=O)OC3COCOC3)cc2)c(-c2ccc(C(=O)NCC3CC3)nc2C(=O)OC(C)OC(=O)OC(C)C)cc1OC (stereo not shown) [Compound 68a, 1-((isopropoxycarbonyl)oxy)ethyl 3-(2-((4-(N-(((1,3-dioxan-5-yl)oxy)carbonyl)carbamimidoyl)phenyl)carbamoyl)-5-methoxy-4-vinylphenyl)-6-((cyclopropylmethyl)carbamoyl)picolinate]	B (B = 1,001-10,000 ng/mL)
C=Cc1cc(C(=O)Nc2ccc(C(=N)NC(=O)OCCC[C@H](O)C(=O)O)cc2)c(-c2ccc(C(=O)NCC3CC3)nc2C(=O)OC(C)OC(=O)C(C)C)cc1OC (stereo partly drawn) [Compound 92a, (2S)-5-((((4-(2-(6-((cyclopropylmethyl)carbamoyl)-2-((1-(isobutyryloxy)ethoxy)carbonyl)pyridin-3-yl)-4-methoxy-5-vinylbenzamido)phenyl)(imino)methyl)carbamoyl)oxy)-2-hydroxypentanoic acid]	A (A = 0-1,000 ng/mL)
C=Cc1cc(C(=O)Nc2ccc(C(=N)NC(=O)OC(C)CN)cc2)c(-c2ccc(C(=O)NCC3CC3)nc2C(=O)OC(C)OC(=O)OC(C)C)cc1OC (stereo not shown) [Compound 97e, 1-((isopropoxycarbonyl)oxy)ethyl 3-(2-((4-(N-(((1-aminopropan-2-yl)oxy)carbonyl)carbamimidoyl)phenyl)carbamoyl)-5-methoxy-4-vinylphenyl)-6-((cyclopropylmethyl)carbamoyl)picolinate]	A (A = 0-1,000 ng/mL)
C=Cc1cc(C(=O)Nc2ccc(C(=N)NC(=O)OCCCCCC)cc2)c(-c2ccc(C(=O)NCC3CC3)nc2C(=O)OCOC(=O)CN)cc1OC [Compound 45b, (2-aminoacetoxy)methyl 6-((cyclopropylmethyl)carbamoyl)-3-(2-((4-(N-((hexyloxy)carbonyl)carbamimidoyl)phenyl)carbamoyl)-5-methoxy-4-vinylphenyl)picolinate]	A (A = 0-1,000 ng/mL)
C=Cc1cc(C(=O)Nc2ccc(C(=N)NC(=O)OC(C)OC(=O)C(C)C)cc2)c(-c2ccc(C(=O)NCC3CC3)nc2C(=O)OC(C)OC(=O)OC(C)C)cc1OC (stereo not shown) [Compound 49a, 1-((isopropoxycarbonyl)oxy)ethyl 6-((cyclopropylmethyl)carbamoyl)-3-(2-((4-(N-((1-(isobutyryloxy)ethoxy)carbonyl)carbamimidoyl)phenyl)carbamoyl)-5-methoxy-4-vinylphenyl)picolinate]	B (B = 1,001-10,000 ng/mL)
C=Cc1cc(C(=O)Nc2ccc(C(=N)NO)cc2)c(-c2ccc(C(=O)NCC3CC3)nc2C(=O)OC(C)OC(=O)OC(C)C)cc1OC (stereo not shown) [Compound 51b, 1-((isopropoxycarbonyl)oxy)ethyl 6-((cyclopropylmethyl)carbamoyl)-3-(2-((4-(N-hydroxycarbamimidoyl)phenyl)carbamoyl)-5-methoxy-4-vinylphenyl)picolinate]	A (A = 0-1,000 ng/mL)
C=Cc1cc(C(=O)Nc2ccc(C(=N)NC(=O)OCCOCCC)cc2)c(-c2ccc(C(=O)NCC3CC3)nc2C(=O)OC(C)OC(=O)OC(C)C)cc1OC (stereo not shown) [Compound 83c, 1-((isopropoxycarbonyl)oxy)ethyl 6-((cyclopropylmethyl)carbamoyl)-3-(5-methoxy-2-((4-(N-((2-propoxyethoxy)carbonyl)carbamimidoyl)phenyl)carbamoyl)-4-vinylphenyl)picolinate]	B (B = 1,001-10,000 ng/mL)
C=Cc1cc(C(=O)Nc2ccc(C(=N)N)cc2)c(-c2ccc(C(=O)NCC3CC3)nc2C(=O)OC(C)OC(=O)[C@@H](N)C(C)C)cc1OC.Cl (stereo partly drawn) [Compound 58f, 1-(((S)-2-amino-3-methylbutanoyl)oxy)ethyl 3-(2-((4-carbamimidoylphenyl)carbamoyl)-5-methoxy-4-vinylphenyl)-6-((cyclopropylmethyl)carbamoyl)picolinate Hydrochloride]	B (B = 1,001-10,000 ng/mL)
C=Cc1cc(C(=O)Nc2ccc(C(=N)NC(=O)OCCCCCC)cc2)c(-c2ccc(C(=O)NCC3CC3)nc2C(=O)OC(C)OC(=O)OC(C)CO)cc1OC (stereo not shown) [Compound 100e, 1-((((1-hydroxypropan-2-yl)oxy)carbonyl)oxy)ethyl 6-((cyclopropylmethyl)carbamoyl)-3-(2-((4-(N-((hexyloxy)carbonyl)carbamimidoyl)phenyl)carbamoyl)-5-methoxy-4-vinylphenyl)picolinate]	B (B = 1,001-10,000 ng/mL)
C=Cc1cc(C(=O)Nc2ccc(C(=N)NC(=O)OC(C)C)cc2)c(-c2ccc(C(=O)NCC3CC3)nc2C(=O)OC)cc1OC [Compound 20b, methyl 6-((cyclopropylmethyl)carbamoyl)-3-(2-((4-(N-(isopropoxycarbonyl)carbamimidoyl)phenyl)carbamoyl)-5-methoxy-4-vinylphenyl)picolinate]	A (A = 0-1,000 ng/mL)

Same assay, conditions: single oral dose 10 mg/kg, fasted male Sprague Dawley rats; plasma analyzed for the parent compound; study duration 12 h

SMILES	AUC0-last hour (area under the curve)
C=Cc1cc(C(=O)Nc2ccc(C(=N)NC(=O)OC(C)OC(=O)[C@@H](N)C(C)C)cc2)c(-c2ccc(C(=O)NCC3CC3)nc2C(=O)O)cc1OC (stereo partly drawn) [Compound 33c, 3-(2-((4-(N-((1-(((S)-2-amino-3-methylbutanoyl)oxy)ethoxy)carbonyl)carbamimidoyl)phenyl)carbamoyl)-5-methoxy-4-vinylphenyl)-6-((cyclopropylmethyl)carbamoyl)picolinic acid]	B (B = 1,001-10,000 ng/mL)
C=Cc1cc(C(=O)Nc2ccc(C(=N)N)cc2)c(-c2ccc(C(=O)NCC3CC3)nc2C(=O)OCOC(=O)[C@@H](N)C(C)C)cc1OC.O=C(O)C(F)(F)F [Compound 10e, (S)-((2-amino-3-methylbutanoyl)oxy)methyl 3-(2-((4-carbamimidoylphenyl)carbamoyl)-5-methoxy-4-vinylphenyl)-6-((cyclopropylmethyl)carbamoyl)picolinate trifluoroacetate]	B (B = 1,001-10,000 ng/mL)
C=Cc1cc(C(=O)Nc2ccc(C(=N)N)cc2)c(-c2ccc(C(=O)NCC3CC3)nc2C(=O)OC(C)OC(=O)C(C)C)cc1OC (stereo not shown) [Compound 29d, 1-(isobutyryloxy)ethyl 3-(2-(4-carbamimidoylphenylcarbamoyl)-5-methoxy-4-vinylphenyl)-6-(cyclopropylmethylcarbamoyl)picolinate]	B (B = 1,001-10,000 ng/mL)
